Data from US6479435B1, “Diaryl ethers and processes for their preparation and herbicidal and desiccant compositions containing them” (ISK Americas Incorporated, priority 1997, dated 2002).

What was measured:
Format in all cases: in vivo
[1] = tested on: upland rice (Oryza sp., var.Tebonnet, RICE); experiment: Post-emerge greenhouse test, crop damage rating; settings: 14 days after application
Summary of the method: (§1)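 Compounds in acetone with 0.25% v/v non-ionic surfactant were track-sprayed at 187 l/ha over plants at the 2-3 leaf stage, at 63 to 1000 g ai/ha. Pots were bottom-watered. Injury was scored visually 14 days later on a 0-100 scale, where 0 is no damage and 100 is complete plant death.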

[2] = tested on: field corn (Zea mays L., var. Dekalb 535, CORN); experiment: Post-emerge greenhouse test, crop damage rating; settings: 14 days after application
Summary of the method: as §1

[3] = tested on: redroot pigweed (Amaranthus retroflexus, AMARE); experiment: Pre-emerge greenhouse herbicide test, phytotoxicity rating; settings: 14 days after application, rating scale 0-100
Summary of the method: (§2)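 Seeds sown in sandy loam mix one day before track-sprayer application of compounds in acetone at 125–1000 g ai/ha (187 l/ha), then surface-watered to incorporate and bottom-watered. Visual rating 14 days after application on a 0–100 scale (0 = no damage, 100 = all plants dead).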

[4] = tested on: ivyleaf morningglory (Ipomoea hederacea, IPOHE); experiment: as above; settings: 14 days after application, rating scale 0-100
Summary of the method: as §2

[5] = tested on: large crabgrass (Digitaria sanguinalis, DIGSA); experiment: as above; settings: 14 days after application, rating scale 0-100
Summary of the method: as §2

[6] = tested on: barnyardgrass (Echinochloa crusgalli, ECHCG); experiment: as above; settings: 14 days after application, rating scale 0-100
Summary of the method: as §2

[7] = tested on: Johnsongrass (Sorghum halepense, SORHA); experiment: as above; settings: 14 days after application, rating scale 0-100
Summary of the method: as §2

[8] = tested on: sicklepod (Cassia obtusifolia, CASOB); experiment: as above; settings: 14 days after application, rating scale 0-100
Summary of the method: as §2

[9] = tested on: lambsquarters (Chenopodium album, CHEAL); experiment: as above; settings: 14 days after application, rating scale 0-100
Summary of the method: as §2

[10] = tested on: green foxtail (Setaria viridis, SETVI); experiment: as above; settings: 14 days after application, rating scale 0-100
Summary of the method: as §2

[11] = tested on: velvetleaf (Abutilon theophrasti, ABUTH); experiment: as above; settings: 14 days after application, rating scale 0-100
Summary of the method: as §2

[12] = tested on: common ragweed (Ambrosia artemisiifolia L., AMBEL); experiment: as above; settings: 14 days after application, rating scale 0-100
Summary of the method: as §2

[13] = tested on: common ragweed (Ambrosia artemisiifolia L., AMBEL); experiment: Post-emerge greenhouse herbicide test, phytotoxicity rating; settings: 14 days after application
Summary of the method: as §1

[14] = tested on: upland rice (Oryza sp., var.Tebonnet, RICE); experiment: Pre-emerge greenhouse test, crop damage rating; settings: 14 days after application, rating scale 0-100
Summary of the method: as §2

[15] = tested on: field corn (Zea mays L., var. Dekalb 535, CORN); experiment: Pre-emerge greenhouse test, crop damage rating; settings: 14 days after application, rating scale 0-100
Summary of the method: as §2

[16] = tested on: soybean (Glycine max L., var. Pella 86, SOY); experiment: Post-emerge greenhouse test, crop damage rating; set-up: key to crop damage rating SOY: 0-100 scale: 0 = no damage, 100 = complete death of all plants; settings: 14 days after application
Summary of the method: as §1

[17] = tested on: redroot pigweed (Amaranthus retroflexus, AMARE); experiment: Post-emerge greenhouse herbicide test, phytotoxicity rating; settings: 14 days after application
Summary of the method: as §1

[18] = tested on: ivyleaf morningglory (Ipomoea hederacea, IPOHE); experiment: as above; settings: 14 days after application
Summary of the method: as §1

[19] = tested on: large crabgrass (Digitaria sanguinalis, DIGSA); experiment: as above; settings: 14 days after application
Summary of the method: as §1

[20] = tested on: barnyardgrass (Echinochloa crusgalli, ECHCG); experiment: as above; settings: 14 days after application
Summary of the method: as §1

[21] = tested on: Johnsongrass (Sorghum halepense, SORHA); experiment: as above; settings: 14 days after application
Summary of the method: as §1

[22] = tested on: sicklepod (Cassia obtusifolia, CASOB); experiment: as above; settings: 14 days after application
Summary of the method: as §1

[23] = tested on: lambsquarters (Chenopodium album, CHEAL); experiment: as above; settings: 14 days after application
Summary of the method: as §1

[24] = tested on: green foxtail (Setaria viridis, SETVI); experiment: as above; settings: 14 days after application
Summary of the method: as §1

[25] = tested on: velvetleaf (Abutilon theophrasti, ABUTH); experiment: as above; settings: 14 days after application
Summary of the method: as §1

[26] = tested on: soybean (Glycine max L., var. Pella 86, SOY); experiment: Pre-emerge greenhouse test, crop damage rating; set-up: key to SOY crop damage rating: 0 = no damage, 100 = complete death of all plants; settings: 14 days after application, rating scale 0-100
Summary of the method: as §2

## CC(=O)Nc1ccc(Oc2cc(-n3c(=O)n4n(c3=S)CCCC4)c(F)cc2Cl)c(C(F)(F)F)c1 [Compound 8-16]
[1]; 63 g al/ha
  RICE crop damage rating (0-100): 0
[1]; rate 500 g ai/ha, scale 0-100
  crop damage rating RICE: 0
[2]; 63 g al/ha
  CORN crop damage rating (0-100): 0
[2]; rate 500 g ai/ha, scale 0-100
  crop damage rating CORN: 5
[3]; 125 g ai/ha
  phytotoxicity rating AMARE: 80
[3]; Rate 500 g al/ha
  AMARE phytotoxicity rating: 90
[4]; 125 g ai/ha
  phytotoxicity rating IPOHE: 0
[4]; Rate 500 g al/ha
  IPOHE phytotoxicity rating: 0
[5]; 125 g ai/ha
  phytotoxicity rating DIGSA: 0
[5]; Rate 500 g al/ha
  DIGSA phytotoxicity rating: 30
[6]; 125 g ai/ha
  phytotoxicity rating ECHCG: 0
[6]; Rate 500 g al/ha
  ECHCG phytotoxicity rating: 0
[7]; 125 g ai/ha
  phytotoxicity rating SORHA: 0
[7]; Rate 500 g al/ha
  SORHA phytotoxicity rating: 10
[8]; 125 g ai/ha
  phytotoxicity rating CASOB: 0
[8]; Rate 500 g al/ha
  CASOB phytotoxicity rating: 0
[9]; 125 g ai/ha
  phytotoxicity rating CHEAL: 100
[9]; Rate 500 g al/ha
  CHEAL phytotoxicity rating: 100
[10]; 125 g ai/ha
  phytotoxicity rating SETVI: 0
[10]; Rate 500 g al/ha
  SETVI phytotoxicity rating: 70
[11]; 125 g ai/ha
  phytotoxicity rating ABUTH: 90
[11]; Rate 500 g al/ha
  ABUTH phytotoxicity rating: 100
[12]; 125 g ai/ha
  phytotoxicity rating AMBEL: 40
[12]; Rate 500 g al/ha
  AMBEL phytotoxicity rating: 100
[13]; 63 g al/ha
  AMBEL phytotoxicity rating (0-100): 40
[13]; rate 500 g ai/ha, scale 0-100
  phytotoxicity rating AMBEL: 40
[14]; 125 g ai/ha
  crop damage rating RICE: 0
[14]; Rate 500 g al/ha
  RICE crop damage rating: 0
[15]; 125 g ai/ha
  crop damage rating CORN: 0
[15]; Rate 500 g al/ha
  CORN crop damage rating: 0
[16]; 63 g al/ha
  SOY crop damage rating (0-100): 10
[16]; rate 500 g ai/ha, scale 0-100
  crop damage rating SOY: 20
[17]; 63 g al/ha
  AMARE phytotoxicity rating (0-100): 90
[17]; rate 500 g ai/ha, scale 0-100
  phytotoxicity rating AMARE: 100
[18]; 63 g al/ha
  IPOHE phytotoxicity rating (0-100): 90
[18]; rate 500 g ai/ha, scale 0-100
  phytotoxicity rating IPOHE: 75
[19]; 63 g al/ha
  DIGSA phytotoxicity rating (0-100): 0
[19]; rate 500 g ai/ha, scale 0-100
  phytotoxicity rating DIGSA: 0
[20]; 63 g al/ha
  ECHCG phytotoxicity rating (0-100): 0
[20]; rate 500 g ai/ha, scale 0-100
  phytotoxicity rating ECHCG: 0
[21]; 63 g al/ha
  SORHA phytotoxicity rating (0-100): 0
[21]; rate 500 g ai/ha, scale 0-100
  phytotoxicity rating SORHA: 10
[22]; 63 g al/ha
  CASOB phytotoxicity rating (0-100): 0
[22]; rate 500 g ai/ha, scale 0-100
  phytotoxicity rating CASOB: 70
[23]; 63 g al/ha
  CHEAL phytotoxicity rating (0-100): 85
[23]; rate 500 g ai/ha, scale 0-100
  phytotoxicity rating CHEAL: 95
[24]; 63 g al/ha
  SETVI phytotoxicity rating (0-100): 10
[24]; rate 500 g ai/ha, scale 0-100
  phytotoxicity rating SETVI: 30
[25]; 63 g al/ha
  ABUTH phytotoxicity rating (0-100): 80
[25]; rate 500 g ai/ha, scale 0-100
  phytotoxicity rating ABUTH: 100
[26]; 125 g ai/ha
  crop damage rating SOY: 0
[26]; Rate 500 g al/ha
  SOY crop damage rating: 10
